Experimental data: patent publication US20180312493A1, “Antibiotic Compounds, Pharmaceutical Formulations Thereof And Methods And Uses Therefor” (Simon Fraser University, priority 2015, published 2018)
In brackets after ≈: the same amount, converted by molar mass. Like-named read-outs stand apart in the source and are kept apart here.

How the values were obtained:
K. pneumoniae (C238) = experiment: In vitro susceptibility, broth microdilution (MIC); type: cell-based; conditions: Klebsiella pneumoniae; K. pneumoniae (C238); read-out: Antimicrobial activity (MIC) K. pneumoniae
Summary of the method: (§1)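 CLSI 2-fold serial broth microdilution; K. pneumoniae C238 grown in L-broth, S. aureus ATCC 29213 in Mueller Hinton broth, plates incubated 18–24 h at 37 °C. MIC taken as lowest concentration giving complete growth inhibition by OD600 versus compound-free wells, background-subtracted.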

S. aureus (ATCC29213) = experiment: In vitro susceptibility, broth microdilution (MIC); type: cell-based; conditions: Staphylococcus aureus
Summary of the method: as §1

MRSA Pyk = molecular target: T1, MRSA Pyk (Staphylococcus aureus, UniProt Q6GG09); experiment: MRSA pyruvate kinase (PK) activity, continuous LDH-coupled assay; type: biochemical, methicillin resistant S. aureus (MRSA252)
T1 construct: made in house; host or cells: E. coli BL-21 (DE3)
Summary of the method: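 His-tagged MRSA PK (strain Sanger 252) and human PK isoforms expressed in E. coli BL-21 (DE3) and Ni-NTA purified, used at 15 nM in an LDH-coupled assay following NADH oxidation at 340 nm, 30° C, up to 5 min, ≤1% DMSO. IC50 from four-parameter variable-slope fit; Ki with PEP 2-20 mM, ADP fixed 2 mM, inhibitor 0-400 nM.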

VRE#2 (2010A) = experiment: In vitro susceptibility, broth microdilution (MIC); type: cell-based, vancomycin resistant Enterococci; conditions: read-out: Antimicrobial activity (MIC) VRE#2
From the text: (§2) Epidemic methicillin resistant S. aureus (MRSA) strain sequenced at the Sanger Centre (MRSA252, NRS71) was obtained from NARSA (Network on Antimicrobial Resistance in S. aureus). Methicillin sensitive S. aureus (ATCC 29213 and 25923), methicillin resistant S. aureus (ATCC BAA-1762), and Salmonella typhimurium (ATCC BAA-185) were obtained from ATCC, The Global Bioresource Center. Acinetobacter baumannii (ATCC 19606 and ATCC 17978), Klebsiella pneumonia (C238), vancomycin resistant Enterococci #2 (2010A) (VRE#2), MRSA (USA400, MW2) and Pseudomonas aeruginosa (PA0-1) were obtained from the laboratory of Dr B. B. Finlay at the University of British Columbia (Vancouver, Canada).
(§3) The antimicrobial activities of PK inhibitor candidates were determined using the 96-well microtiter standard 2-fold serial broth microdilution method as described by CLSI (formerly NCCLS) with the various gram-positive and gram-negative bacteria species mentioned above. Bacteria from a single colony were grown, overnight in either BHI Broth (VRE), mueller hinton broth (S. aureus 29213; MRSA USA400, A. baumannii 19606, MRSA BAA-1762) or L-broth (P. aeruginosa, S. typhimurium, K. pneumonia and A. baumannii 17978). Each compound was prepared in DMSO with 2-fold serial dilutions to give a final concentration of, 0.031 to 64 μg/ml. 10 μl of the compound solution was then added, in duplicate, to either, 190 μl of cation adjusted mueller hinton broth (CAMHB) or 190 μl CAMHB containing ˜2.5×10^5 CFU/ml of bacteria (final compound concentration 0.031 to 64 μg/ml). Culture plates were incubated for 18-24 h at 37° C., and optical density at 600 nm (OD600) was measured using a Benchmark Plus™ microplate spectrophotometer (Bio-Rad™). The absorbance control values for the series containing CAMHB and inhibitor were subtracted as background from the corresponding infected wells. Minimal inhibitory concentration (MIC) was defined as the lowest concentration of test compound leading to complete inhibition of cell growth in relation to compound-free control wells as determined by optical density. Vancomycin, methicillin and ciprofloxicin were used as reference compounds. All assays were run in triplicate or duplicate. Experiments were replicated at least twice to verify reproducibility using the above conditions.

MRSA (ATCC BAA-1762) = experiment: In vitro susceptibility, broth microdilution (MIC); type: cell-based, methicillin resistant S. aureus; conditions: Staphylococcus aureus, read-out: Antimicrobial activity (MIC) MRSA ATCC BAA1762
From the text: as §2, §3

[1] = test system: A. baumannii (ATCC 19606); experiment: In vitro susceptibility, broth microdilution (MIC); type: cell-based; conditions: Acinetobacter baumannii, ATCC19606; A. baumannii ATCC 19606 (values without asterisk); read-out: Antimicrobial activity (MIC) A. baumannii
From the text: as §2, §3

[2] = S. aureus ATCC29213, 18-24 h, 37 C, read-out: Antimicrobial activity (MIC) S. aureus ATCC29213

T1 sequence (Q6GG09 whole entry): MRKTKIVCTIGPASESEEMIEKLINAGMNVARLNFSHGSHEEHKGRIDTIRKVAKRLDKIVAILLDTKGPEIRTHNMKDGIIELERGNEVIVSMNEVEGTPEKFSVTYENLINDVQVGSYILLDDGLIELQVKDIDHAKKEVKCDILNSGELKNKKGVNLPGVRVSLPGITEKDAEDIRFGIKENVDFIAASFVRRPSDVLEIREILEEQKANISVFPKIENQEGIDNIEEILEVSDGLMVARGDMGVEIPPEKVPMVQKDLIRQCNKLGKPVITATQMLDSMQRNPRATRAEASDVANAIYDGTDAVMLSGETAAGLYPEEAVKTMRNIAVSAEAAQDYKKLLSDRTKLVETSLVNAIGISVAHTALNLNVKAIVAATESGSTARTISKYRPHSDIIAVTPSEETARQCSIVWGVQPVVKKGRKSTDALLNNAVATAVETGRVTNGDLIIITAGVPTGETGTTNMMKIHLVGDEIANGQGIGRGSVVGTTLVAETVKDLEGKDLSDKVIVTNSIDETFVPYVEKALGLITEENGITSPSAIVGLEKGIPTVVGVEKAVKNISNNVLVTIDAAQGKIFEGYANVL

SMILES	MIC (K. pneumoniae (C238)) [µg/mL]	MIC (S. aureus (ATCC29213); [2]) [µg/mL]	IC50 (MRSA Pyk) [nM]	also measured
O=C(CCCC(=O)c1c(-c2cc3cc(Cl)ccc3[nH]2)[nH]c2cc(Br)ccc12)NCCO [Compound 104, 5-(6-bromo-5′-chloro-1H,1′H-[2,2′-biindol]-3-yl)-N-(2-hydroxyethyl)-5-oxopentanamide]	> 64	> 64	< 100	
COCCNC(=O)CCCC(=O)c1c(-c2cc3cc(Cl)ccc3[nH]2)[nH]c2cc(Br)ccc12 [Compound 103, 5-(6-bromo-5′-chloro-1H,1′H-[2,2′-biindol]-3-yl)-N-(2-methoxyethyl)-5-oxopentanamide]	> 64	> 64	< 100	
COCCC1CCCN1CCNC(=O)c1c(-c2cc3cc(Cl)ccc3[nH]2)[nH]c2cc(Br)ccc12 (stereo not drawn) [Compound 123, 6-Bromo-5′-chloro-N-(2-(2-(2-methoxyethyl)pyrrolidin-1-yl)ethyl)-1H,1′H-[2,2′-biindole]-3-carboxamide]		8 (≈ 14.7 µM)	< 100	MIC (VRE#2 (2010A); VRE#2 (2010A)): 8 µg/mL (≈ 14.7 µM); MIC (MRSA (ATCC BAA-1762); MRSA ATCC BAA-1762): 8 µg/mL (≈ 14.7 µM)
O=C(NCCc1ccccn1)C(=O)c1c(/C=C/c2ccc(Cl)cc2)[nH]c2cc(Br)ccc12 [Compound 88, (E)-2-(6-bromo-2-(4-chlorostyryl)-1H-indol-3-yl)-2-oxo-N-(2-(pyridin-2-yl)ethyl)acetamide]	> 64	> 64	100 to 1000	
O=C(NCCCN1CCOCC1)c1c(/C=C/c2ccc(Cl)cc2)[nH]c2cc(Br)ccc12 [Compound 48, (E)-6-Bromo-2-(4-chlorostyryl)-N-(3-morpholinopropyl)-1H-indole-3-carboxamide]	> 64	> 64		
O=C(NCCCCN1CCOCC1)c1c(/C=C/c2ccc(Cl)cc2)[nH]c2cc(Br)ccc12 [Compound 45, (E)-6-Bromo-2-(4-chlorostyryl)-N-(4-morpholinobutyl)-1H-indole-3-carboxamide]	32 (≈ 61.9 µM)	> 64	< 100	
C[C@@H]1CN(CCNC(=O)c2c(-c3cc4cc(Cl)ccc4[nH]3)[nH]c3cc(Br)ccc23)[C@@H](C)CN1C [Compound 122, 6-Bromo-5′-chloro-N-(2-((2S,5R)-2,4,5-trimethylpiperazin-1-yl)ethyl)-1H,1′H-[2,2′-biindole]-3-carboxamide]		8 (≈ 14.7 µM)	< 100	MIC (VRE#2 (2010A); VRE#2 (2010A)): 8 µg/mL (≈ 14.7 µM); MIC (MRSA (ATCC BAA-1762); MRSA ATCC BAA-1762): 8 µg/mL (≈ 14.7 µM)
CN(C)CCn1c(-c2ccc(Cl)cc2)nc2[nH]c3cc(Br)ccc3c2c1=O [Compound 111, 7-bromo-2-(4-chlorophenyl)-3-(2-(dimethylamino)ethyl)-3H-pyrimido[4,5-b]indol-4(9H)-one]	> 64	> 64		
CNC(=O)Cc1c(CCc2ccc(Cl)cc2)[nH]c2cc(Br)ccc12 [Compound 91, 2-(6-Bromo-2-(4-chlorophenethyl)-1H-indol-3-yl)-N-methylacetamide]	> 64	> 64		
O=C(Cc1ccc(Cl)cc1)Nc1nc2ccc(Br)cc2s1 [Compound 109, N-(6-bromobenzo[d]thiazol-2-yl)-2-(4-chlorophenyl)acetamide]	> 64	> 64		
CC(C)(C)OC(=O)N1CCN(C(=O)c2c(-c3cc4cc(Cl)ccc4[nH]3)[nH]c3cc(Br)ccc23)C(C(=O)O)C1 (stereo not drawn) [Compound 224, 1-(6-bromo-5′-chloro-1H,1′H-[2,2′-biindole]-3-carbonyl)-4-(tert-butoxycarbonyl)piperazine-2-carboxylic Acid]		32 (≈ 53.2 µM)	< 100	MIC (VRE#2 (2010A); VRE#2 (2010A)): 32 µg/mL (≈ 53.2 µM); MIC (MRSA (ATCC BAA-1762); MRSA ATCC BAA-1762): 32 µg/mL (≈ 53.2 µM)
O=C(Nc1ccccc1)Nc1nc2ccc(Br)cc2s1 [Compound 100, 1-(6-bromobenzo[d]thiazol-2-yl)-3-phenylurea]	> 64	> 64		
CN1CCN(CCNC(=O)c2c(-c3cc4cc(Cl)ccc4[nH]3)[nH]c3cc(Br)ccc23)C(c2ccccc2)C1 (stereo not drawn) [Compound 139, 6-Bromo-5′-chloro-N-(2-(4-methyl-2-phenylpiperazin-1-yl)ethyl)-1H,1′H-[2,2′-biindole]-3-carboxamide]		4 (≈ 6.77 µM)	< 100	MIC (VRE#2 (2010A); VRE#2 (2010A)): 8 µg/mL (≈ 13.5 µM); MIC (MRSA (ATCC BAA-1762); MRSA ATCC BAA-1762): 8 µg/mL (≈ 13.5 µM)
COc1cc2[nH]c(-c3cc4ccc(Br)cc4[nH]3)cc2cc1Cl [Compound 140, 6′-Bromo-5-chloro-6-methoxy-1H,1′H-2,2′-biindole]	> 64	> 64		
CNC(=O)C(O)c1c(/C=C/c2ccc(Cl)cc2)[nH]c2cc(Br)ccc12 (stereo not drawn) [Compound 90, (E)-2-(6-bromo-2-(4-chlorostyryl)-1H-indol-3-yl)-2-hydroxy-N-methylacetamide]	> 64	> 64	100 to 1000	
O=C(Nc1ccccc1)Nc1nc2cc(Br)ccc2s1 [Compound 99, 1-(5-bromobenzo[d]thiazol-2-yl)-3-phenylurea]	8 (≈ 23 µM)	1 (≈ 2.87 µM)		
CNC(=O)C(=O)c1c(CCc2ccc(Cl)cc2)[nH]c2cc(Br)ccc12 [Compound 89, 2-(6-bromo-2-(4-chlorophenethyl)-1H-indol-3-yl)-N-methyl-2-oxoacetamide]	> 64	> 64	> 1000	
CN(Cc1ccccc1)c1c(CCc2ccc(Cl)cc2)[nH]c2cc(Br)ccc12 [Compound 98, N-benzyl-6-bromo-2-(4-chlorophenethyl)-N-methyl-1H-indol-3-amine]	> 64	32 (≈ 70.5 µM)	100 to 1000	
Cc1nc2c(cc1-c1ccc(Cl)cc1)[nH]c1cc(Br)ccc12 [Compound 113, 7-bromo-3-(4-chlorophenyl)-2-methyl-5H-pyrido[3,2-b]indole]	> 64	> 64	< 100	
O=C(NCCC[n+]1ccccc1)c1c(-c2cc3cc(Cl)ccc3[nH]2)[nH]c2cc(Br)ccc12 [Compound 144, 1-(3-(6-bromo-5′-chloro-1H,1′H-[2,2′-biindole]-3-carboxamido)propyl)pyridin-1-ium]		8	< 100	MIC (VRE#2 (2010A); VRE#2 (2010A)): 16 µg/mL; MIC (MRSA (ATCC BAA-1762); MRSA ATCC BAA-1762): 16 µg/mL
O=C(CCCC(=O)c1c(-c2cc3cc(Cl)ccc3[nH]2)[nH]c2cc(Br)ccc12)Nc1ncn[nH]1 [Compound 105, 5-(6-bromo-5′-chloro-1H,1′H-[2,2′-biindol]-3-yl)-5-oxo-N-(1H-1,2,4-triazol-5-yl)pentanamide]	> 64	> 64	< 100	
FC(F)(F)c1ccc2sc(/C=C/c3ccc(Cl)cc3)nc2c1 [Compound 115, (E)-2-(4-chlorostyryl)-5-(trifluoromethyl)benzo[d]thiazole]	> 64	> 64		
NC(=O)Cn1c(-c2cc3ccc(Br)cc3[nH]2)nc2cc(Cl)c(Cl)cc21 [Compound 215, 2-(2-(6-Bromo-1H-indol-2-yl)-5,6-dichloro-1H-benzo[d]imidazol-1-yl)acetamide]		> 64		MIC [1]: > 64 µg/mL
CN(C)CCc1c(-c2nc3ccc(Cl)cc3o2)[nH]c2cc(Br)ccc12 [Compound 203, 2-(6-Bromo-2-(6-chlorobenzo[d]oxazol-2-yl)-1H-indol-3-yl)-N,N-dimethylethan-1-amine]			< 100	MIC (S. aureus (ATCC29213); ATCC29213, read-out: Antimicrobial activity (MIC) S. aureus ATCC29213): 8 µg/mL (≈ 19.1 µM); MIC (VRE#2 (2010A)): 16 µg/mL (≈ 38.2 µM); MIC (MRSA (ATCC BAA-1762)): 8 µg/mL (≈ 19.1 µM)
